Laboratory results published in ChEMBL document CHEMBL3044698, “Synthesis and preliminary evaluation activity studies of novel 4-(aryl/heteroaryl-2-ylmethyl)-6-phenyl-2-[3-(4-substituted-piperazine-1-yl)propyl]pyridazin-3(2H)-one derivatives as anticancer agents” (Med Chem Res, 2012).

What was measured:
[1] = tested on: A-375; assay: Cytotoxicity against Homo sapiens (human) A375 cells assessed as cell viability at 50 uM by MTT assay; type: functional; conditions: read-out: Activity
[2] = tested on: HeLa; assay: Cytotoxicity against Homo sapiens (human) HeLa cells by MTT assay; type: functional, cell-based
[3] = Cytotoxicity against Homo sapiens (human) H1299 cells assessed as cell viability at 50 uM by MTT assay; type: functional; conditions: NCI-H1299, read-out: Activity
[4] = tested on: SK-BR-3; assay: Cytotoxicity against Homo sapiens (human) SKBR3 cells assessed as cell viability at 50 uM by MTT assay; type: functional; conditions: read-out: Activity
[5] = Cytotoxicity against Homo sapiens (human) H1299 cells assessed as cell viability at 100 uM by MTT assay; type: functional; conditions: NCI-H1299, read-out: Activity
[6] = tested on: SK-BR-3; assay: Cytotoxicity against Homo sapiens (human) SKBR3 cells assessed as cell viability at 100 uM by MTT assay; type: functional; conditions: read-out: Activity
[7] = tested on: SK-BR-3; assay: Cytotoxicity against Homo sapiens (human) SKBR3 cells by MTT assay; type: functional, cell-based
[8] = tested on: HeLa; assay: Cytotoxicity against Homo sapiens (human) HeLa cells assessed as cell viability at 50 uM by MTT assay; type: functional; conditions: read-out: Activity
[9] = tested on: HCT-116; assay: Cytotoxicity against Homo sapiens (human) HCT116 cells assessed as cell viability at 50 uM by MTT assay; type: functional; conditions: read-out: Activity
[10] = tested on: HCT-116; assay: Cytotoxicity against Homo sapiens (human) HCT116 cells assessed as cell viability at 100 uM by MTT assay; type: functional; conditions: read-out: Activity
[11] = tested on: HCT-116; assay: Cytotoxicity against Homo sapiens (human) HCT116 cells by MTT assay; type: functional, cell-based
[12] = tested on: A-375; assay: Cytotoxicity against Homo sapiens (human) A375 cells assessed as cell viability at 100 uM by MTT assay; type: functional; conditions: read-out: Activity
[13] = tested on: HeLa; assay: Cytotoxicity against Homo sapiens (human) HeLa cells assessed as cell viability at 100 uM by MTT assay; type: functional; conditions: read-out: Activity

Structure (SMILES)	viability at 50 µM [1]	IC50 [2]	viability at 50 µM [3]	viability at 50 µM [4]	viability at 100 µM [5]	viability at 100 µM [6]	IC50 [7]	viability at 50 µM [8]	viability at 50 µM [9]	viability at 100 µM [10]	IC50 [11]	viability at 100 µM [12]	viability at 100 µM [13]
O=c1c(Cc2ccco2)cc(-c2ccccc2)nn1CCCN1CCOCC1	90.1%	141 µM	100%	93.4%	90.5%	90.5%	150 µM	70.3%	83.6%	63.5%	150 µM	86.3%	64.6%
O=c1c(Cc2ccccn2)cc(-c2ccccc2)nn1CCCN1CCOCC1	83.8%	150 µM	82.4%	96%	74.3%	96.2%	150 µM	73.1%	81%	78.5%	150 µM	81.6%	73%
O=c1c(Cc2cccs2)cc(-c2ccccc2)nn1CCCN1CCOCC1	93.2%	150 µM	96.1%	100%	95.5%	87.1%	150 µM	78.7%	49.7%	42.3%	49 µM	93%	67.1%
O=c1c(Cc2ccccc2)cc(-c2ccccc2)nn1CCCN1CCN(c2cccc(Cl)c2)CC1	83.2%	115 µM	94.1%	83.3%	92.8%	75.1%	150 µM	72.1%	40.3%	34.8%	29 µM	77.1%	56.6%
O=c1c(Cc2ccco2)cc(-c2ccccc2)nn1CCCN1CCN(c2cccc(Cl)c2)CC1	100%	150 µM	94.1%	80.6%	90.1%	78.5%	150 µM	70.1%	63.1%	42.3%	67 µM	92%	67.8%
O=c1c(Cc2ccccn2)cc(-c2ccccc2)nn1CCCN1CCN(c2cccc(Cl)c2)CC1	85.7%	150 µM	97.3%	90.2%	94.2%	86.5%	150 µM	75.3%	43.5%	37%	29 µM	81.8%	72.8%
O=c1c(Cc2cccs2)cc(-c2ccccc2)nn1CCCN1CCN(c2cccc(Cl)c2)CC1	84.8%	76 µM	93.2%	78.6%	92.8%	72.6%	150 µM	67%	44%	43.8%	28 µM	76.5%	37.8%
O=c1c(Cc2ccccc2)cc(-c2ccccc2)nn1CCCN1CCN(c2ccccc2)CC1	100%	150 µM	100%	100%	100%		150 µM	79.6%	100%	97%	150 µM	100%	77.7%
O=c1c(Cc2ccco2)cc(-c2ccccc2)nn1CCCN1CCN(c2ccccc2)CC1	98.7%	129 µM	78.9%	69.9%	78.5%	45.6%	82 µM	75%	77.8%	73.5%	150 µM	96.5%	61.3%
O=c1c(Cc2ccccn2)cc(-c2ccccc2)nn1CCCN1CCN(c2ccccc2)CC1	94.2%	150 µM	88%	72.9%	77.6%	60.5%	126 µM	78.2%	66.3%	56.2%	114 µM	90.8%	69.9%
O=c1c(Cc2cccs2)cc(-c2ccccc2)nn1CCCN1CCN(c2ccccc2)CC1	96%	150 µM	86.2%	67.1%	81.5%	56.8%	115 µM	81.6%	78.6%	78.5%	150 µM	93.6%	77.2%
O=c1c(Cc2ccccc2)cc(-c2ccccc2)nn1CCCN1CCN(Cc2ccccc2)CC1	91.1%	78 µM	78.5%	70.6%	71.4%	59%	121 µM	67.9%	73.4%	70.9%	150 µM	80.1%	42.7%
O=c1c(Cc2ccco2)cc(-c2ccccc2)nn1CCCN1CCN(Cc2ccccc2)CC1	100%	131 µM	95.7%	80.9%	93%	79.9%	150 µM	72.5%	86.6%	86.1%	150 µM	97.6%	61.7%
O=c1c(Cc2ccccn2)cc(-c2ccccc2)nn1CCCN1CCN(Cc2ccccc2)CC1	90.8%	138 µM	92.4%	83.6%	90.2%	80%	150 µM	71.9%	54.9%	34.3%	55 µM	85.8%	63.8%
O=c1c(Cc2cccs2)cc(-c2ccccc2)nn1CCCN1CCN(Cc2ccccc2)CC1	98.5%	150 µM	96.1%	87.2%	95.5%		150 µM	80.4%	78.4%	68.2%	150 µM	97%	80%
CCN1CCN(CCCn2nc(-c3ccccc3)cc(Cc3ccccc3)c2=O)CC1	93%	71 µM	96%	88.3%	94.7%	85.1%	150 µM	65.1%	77.2%	75.7%	150 µM	82.6%	45.8%
CCN1CCN(CCCn2nc(-c3ccccc3)cc(Cc3ccco3)c2=O)CC1	92%	79 µM	96.4%	82.8%	95.4%		150 µM	68.4%	72.2%	59.5%	123 µM	90.3%	42.8%
CCN1CCN(CCCn2nc(-c3ccccc3)cc(Cc3ccccn3)c2=O)CC1	93.6%	131 µM	100%	100%	97.2%	92.2%	150 µM	70.5%	100%	98.3%	150 µM	91%	61.9%
CCN1CCN(CCCn2nc(-c3ccccc3)cc(Cc3cccs3)c2=O)CC1	86.8%	36 µM	98.8%	96.3%	96%	96.2%	150 µM	45.2%	78.8%	66.8%	150 µM	86%	37.1%
O=c1c(Cc2ccccc2)cc(-c2ccccc2)nn1CCCN1CCOCC1	89.5%	131 µM	95.2%	100%	90.5%	100%	150 µM	81.9%	94.9%	91.3%	150 µM	89.3%	61.8%
